# Measurements taken from patent US11000512B2, “Use of DDX3 inhibitors as antiproliferative agents” (AZIENDA OSPEDALIERA UNIVERSITARIA SENESE, priority 2016, dated 2021).
# Key:
# [1] = system: Human cervical carcinoma cell line (HeLa); assay: Cytotoxicity test / growth inhibition, HeLa; type: cell-based; settings: 48 hours, cell counting, mM
# Procedure: (§1) Cells were purchased from American Type Culture Collection (ATCC, Manassas, Va., USA). The LNCaP (ATCC® CRL-1740™), A549 (ATCC® CCL-185™), MDA-MB-231 (ATCC® CRM-HTB-26™), 22Rv1 (ATCC® CRL-2505™), HCT-116 (ATCC® CCL-247™) and PC3 (ATCC® CRL-1435™) cells were maintained in Roswell Park Memorial Institute 1640 medium (RPMI; Euroclone, ECB9006L) supplemented with 10% fetal bovine serum (Euroclone; ECS0180L), 2 mM L-glutamine, 100 units/mL penicillin and […] streptomycin at 37° C. in an atmosphere of 5% CO2/air. DU145 (ATCC® HTB-81™), and DAOY (ATCC® HTB-186™) cells were maintained in Eagle's minimal essential medium (EMEM; Euro-clone, ECM0445L) supplemented with 10% fetal bovine serum (Euroclone; ECS0180L), 2 mM L-glutamine, 100 units/ml penicillin and […] streptomycin at 37° C. in an atmosphere of 5% CO2/air. SH-SY5Y (ATCC® CRL-2266™), DBRTG (ATCC® CRL-2020™), HeLa (ATCC® CCL-2™), HN6 cells (kindly provided by Dr Silvio Gutkind, UCSD Medical Center, Moores Cancer Center USA, Chen J. J et al, Oncotarget 2013, 4, 206-217)), U2OS (ATCC® HTB-96™), RD18 cells (kindly provided by Dr P. Boccuni Memorial Sloan-Kettering Cancer Center, New York, USA Vella S. et al. Clin Epigenetics. […]
# (§2) Cell lines were seeded at appropriate densities in 2 mL growth medium in 6-wells culture plates 24 hours before the treatment with the inhibitor compounds. […] Cells were incubated 48 hours with drugs and, then, cell viability was evaluated.
# (§3) Cells were detached from each well of the 6-wells plates with 300 μL of Trypsin and suspended in culture medium to a final volume of 1 mL. Cell viability was then assessed through cell counting. Cells were diluted in 1:50 ratio of an isotonic buffered diluent, Isoton (Backman Coulter), following the manufacturer's instructions, and counted using an automated cell counter (Z2 series Coulter Counter, Beckman Coulter). […]
# [2] = system: Human breast adenocarcinoma cell line (MDA-MB-231); assay: Cytotoxicity test / growth inhibition, MDA-MB-231; type: cell-based; settings: MDA-MB-231, 48 hours, cell counting
# Procedure: (§4) Cells were purchased from American Type Culture Collection (ATCC, Manassas, Va., USA). The LNCaP (ATCC® CRL-1740™), A549 (ATCC® CCL-185™), MDA-MB-231 (ATCC® CRM-HTB-26™), 22Rv1 (ATCC® CRL-2505™), HCT-116 (ATCC® CCL-247™) and PC3 (ATCC® CRL-1435™) cells were maintained in Roswell Park Memorial Institute 1640 medium (RPMI; Euroclone, ECB9006L) supplemented with 10% fetal bovine serum (Euroclone; ECS0180L), 2 mM L-glutamine, 100 units/mL penicillin and […] streptomycin at 37° C. in an atmosphere of 5% CO2/air. DU145 (ATCC® HTB-81™), and DAOY (ATCC® HTB-186™) cells were maintained in Eagle's minimal essential medium (EMEM; Euro-clone, ECM0445L) supplemented with 10% fetal bovine serum (Euroclone; ECS0180L), 2 mM L-glutamine, 100 units/ml penicillin and […] streptomycin at 37° C. in an atmosphere of 5% CO2/air. SH-SY5Y (ATCC® CRL-2266™), DBRTG (ATCC® CRL-2020™), HeLa (ATCC® CCL-2™), HN6 cells (kindly provided by Dr Silvio Gutkind, UCSD Medical Center, Moores Cancer Center USA, Chen J. J et al, Oncotarget 2013, 4, 206-217)), U2OS (ATCC® HTB-96™), RD18 cells (kindly provided by Dr P. Boccuni Memorial Sloan-Kettering Cancer Center, New York, USA Vella S. et al. Clin Epigenetics. 2015 6; 7-82), cells were maintained in Dulbecco's modified Eagle's medium (DMEM; Euroclone, ECB7501L) supplemented with 10% fetal bovine serum (Euroclone; ECS0180L), 2 mM L-glutamine, 100 units/ml penicillin and […] streptomycin at 37° C. in an atmosphere of 5% CO2/air.
# (§5) Cell lines were seeded at appropriate densities in 2 mL growth medium in 6-wells culture plates 24 hours before the treatment with the inhibitor compounds. After 24 h the culture medium was removed and fresh medium containing increasing concentrations of chemical compounds was added to cells. The fixed final concentrations were: 0.1 μM, 1 μM, 10 μM, 100 μM. DMSO was the vehicle used for dilution of the compounds and its final concentration on cells was less than 0.2%. Medium-only containing wells were included as controls. Cells were incubated 48 hours with drugs and, then, cell viability was evaluated.
# (§6) Cells were detached from each well of the 6-wells plates with 300 μL of Trypsin and suspended in culture medium to a final volume of 1 mL. Cell viability was then assessed through cell counting. Cells were diluted in 1:50 ratio of an isotonic buffered diluent, Isoton (Backman Coulter), following the manufacturer's instructions, and counted using an automated cell counter (Z2 series Coulter Counter, Beckman Coulter). Each cell count was performed in three replicates. The values corresponding to the relative survival of cells in presence of each chemical compound at single concentrations were normalized to the untreated controls. Then, the half maximal inhibitory concentration (IC50) value, which represent the drug concentration that is required to induce a 50% growth inhibition in vitro, was calculated with GraphPad Prism 6.0 software using the best fitting sigmoid curve.
# [3] = Microsomal Stability Assay (HLM); type: in vitro ADME; settings: human liver microsomes, 37° C., 60 min, NADPH-generating system; percentage of not metabolized compound
# Text: For the quantification was used an LC-MS system consisted of a Varian apparatus (Varian Inc) including a vacuum solvent degassing unit, two pumps (212-LC), a Triple Quadrupole MSD (Mod. 320-LC) mass spectrometer with ES interface and Varian MS Workstation System Control Vers. 6.9 software. Chromatographic separation was obtained using a Pursuit C18 column (50×2.0 mm) (Varian) with 3 μm particle size and gradient elution: eluent A being ACN and eluent B consisting of water. […] The flow rate was 0.2 mL min^−1 and injection volume was 5 μL. The instrument operated in positive mode and parameters were: detector 1850 V, drying gas pressure 25.0 psi, desolvation temperature 300.0° C., nebulizing gas 40.0 psi, needle 5000 V and shield 600 V. Nitrogen was used as nebulizer gas and drying gas. Collision induced dissociation was performed using Argon as the collision gas at a pressure of 1.8 mTorr in the collision cell. Microsomal Stability Assay. […] The reaction was stopped by cooling on ice and adding 1.0 mL of acetonitrile. The reaction mixtures were then centrifuged, and the parent drug and metabolites were subsequently determined by LC-UV-MS. Chromatographic analysis was performed with an Agilent 1100 LC/MSD VL system (G1946C) (Agilent Technologies, Palo Alto, Calif.) constituted by a vacuum solvent degassing unit, a binary high-pressure gradient pump, an 1100 series UV detector, and an 1100 MSD model VL benchtop mass spectrometer.
# Chromatographic separation was obtained using a Varian Polaris C18-A column (150-4.6 mm, 5 μm particle size) and gradient elution: eluent A being ACN and eluent B consisting of water. […] The flow rate was 0.8 mL min^−1 and injection volume was 20 μL.
# The Agilent 1100 series mass spectra detection (MSD) single-quadrupole instrument was equipped with the orthogonal spray API-ES (Agilent Technologies, Palo Alto, Calif.). Nitrogen was used as nebulizing and drying gas. The pressure of the nebulizing gas, the flow of the drying gas, the capillary voltage, the fragmentor voltage, and the vaporization temperature were set at 40 psi, 9 L/min, 3000 V, 70 V, and 350° C., respectively. UV detection was monitored at 280 nm. The LC-ESI-MS determination was performed by operating the MSD in the positive ion mode. Spectra were acquired over the scan range m/z 100-1500 using a step size of 0.1 u. The percentage of not metabolized compound was calculated by comparison with reference solutions.
# [4] = system: Human Neuroblastoma cell line (SH-SY5Y); assay: Cytotoxicity test / growth inhibition, SH-SY5Y; type: cell-based; settings: 48 hours, cell counting
# Procedure: Cells were purchased from American Type Culture Collection (ATCC, Manassas, Va., USA). The LNCaP (ATCC® CRL-1740™), A549 (ATCC® CCL-185™), MDA-MB-231 (ATCC® CRM-HTB-26™), 22Rv1 (ATCC® CRL-2505™), HCT-116 (ATCC® CCL-247™) and PC3 (ATCC® CRL-1435™) cells were maintained in Roswell Park Memorial Institute 1640 medium (RPMI; Euroclone, ECB9006L) supplemented with 10% fetal bovine serum (Euroclone; ECS0180L), 2 mM L-glutamine, 100 units/mL penicillin and […] streptomycin at 37° C. in an atmosphere of 5% CO2/air. […]
# as §2, §3
# [5] = Parallel Artificial Membrane Permeability Assay (PAMPA), GI; type: in vitro ADME; settings: GI (intestinal) PAMPA, value in brackets
# Procedure: Parallel Artificial Membrane Permeability Assay (PAMPA). Donor solution (0.5 mM) was prepared by diluting 1 mM dimethylsulfoxide (DMSO) compound stock solution using phosphate buffer (pH 7.4, 0.025 M). Filters were coated with 5 μL of a 1% (w/v) dodecane solution of phosphatidylcholine prepared from CHCl3 solution 10% w/v, for intestinal permeability. Donor solution (150 μL) was added to each well of the filter plate. To each well of the acceptor plate were added 300 μL of solution (50% DMSO in phosphate buffer). All compounds were tested in three different plates on different days. The sandwich was incubated for 5 h at room temperature under gentle shaking. After the incubation time, the plates were separated, and samples were taken from both receiver and donor sides and analyzed using LC with UV detection at 280 nm.
# LC analysis were performed with a Varian Prostar HPLC system (Varian Analytical Instruments, USA) equipped with a binary pump with a manual injection valve and model Prostar 325 UV-VIS Detector. Chromatographic separations were conducted using a Polaris C18-A column (150-4.6 mm, 5 μm particle size) at a flow rate of 0.8 mL min^−1 with a mobile phase composed of 60% ACN/40% H2O.
# Permeability (Papp) for PAMPA was calculated according to the following equation, obtained from Wohnsland and Faller and Sugano et al. equation with some modification in order to obtain permeability values in cm s^−1,
# where VA is the volume in the acceptor well, VD is the volume in the donor well (cm^3), A is the “effective area” of the membrane (cm^2), t is the incubation time (s) and r the ratio between drug concentration in the acceptor and equilibrium concentration of the drug in the total volume (VD+VA). Drug concentration is estimated by using the peak area integration.
# Membrane retentions (%) were calculated according to the following equation: […]
# where r is the ratio between drug concentration in the acceptor and equilibrium concentration, D, A, and Eq represented drug concentration in the donor, acceptor and equilibrium solution, respectively.
# [6] = system: Human Glioblastoma cell line (U87); assay: Cytotoxicity test / growth inhibition, U87; type: cell-based; settings: U87, 48 hours, cell counting, mM
# Procedure: as §5
# as §3, with “Coulter). Each cell count was performed in three replicates. The values corresponding to the relative survival of cells in presence of each chemical compound at single concentrations were normalized to the untreated controls.” for “Coulter).”
# [7] = system: Human osteosarcoma cell line (U2OS); assay: Cytotoxicity test / growth inhibition, U2OS; type: cell-based; settings: 48 hours, cell counting
# Procedure: as §4, §5, §6
# [8] = system: Human colorectal carcinoma cell line (HCT116); assay: Cytotoxicity test / growth inhibition, HCT116; type: cell-based; settings: HCT-116, HCT116, 48 hours, cell counting
# Procedure: as §1, §2, §3
# [9] = system: Human head and neck squamous carcinoma cell line (HN6); assay: Cytotoxicity test / growth inhibition, HN6; type: cell-based; settings: HN6, 48 hours, cell counting
# Procedure: as §4, §5, §6
# [10] = system: Human adenocarcinomic alveolar basal epithelial cell line (A549); assay: Cytotoxicity test / growth inhibition, A549; type: cell-based; settings: A549, 48 hours, cell counting
# Procedure: as §4, §5, §6
Sability % [3],PAMPA GI (RM %) membrane retention [5],Structure (SMILES),IC50 [1],IC50 [2],IC50 [4],IC50 [6],IC50 [7],IC50 [8],IC50 [9],IC50 [10]
99%,19.1%,"CCCCc1cn(-c2ccc(NC(=O)Nc3ccccc3C)cc2)nn1 [Compound 20a, 1-(4-(4-butyl-1H-1,2,3-triazol-1-yl)phenyl)-3-o-tolylurea]",0.054 mM,18.7 µM,149 µM,0.037 mM,–,–,–,–
–,–,"CCCCc1nc(-c2ccc(NC(=O)Nc3ccccc3C(F)(F)F)cc2)no1 [Compound 106, 1-(4-(5-butyl-1,2,4-oxadiazol-3-yl)phenyl)-3-(2-(trifluoromethyl)phenyl)urea]",–,–,–,–,35.4 µM,36.8 µM,18.2 µM,32.6 µM
